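Five compound concentrations were applied to cells in 96-well plates for 48 hours; endpoints were derived by simple linear interpolation of the resulting dose-response curve. GI50: concentration for 50% inhibition of growth.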 Activity calls are given as the source filed them. Rule as the data show it: active = GI50 up to about 1.1 µM and inactive = higher.
Key:
Test in all cases: DTP human tumour cell line panel, 48 h
SK-MEL-28 = tested on: SK-MEL-28
OVCAR-8 = tested on: OVCAR-8
NCI-H522 = tested on: NCI-H522
MCF7 = tested on: MCF7
NCI-H460 = tested on: NCI-H460
UACC-62 = tested on: UACC-62
M14 = tested on: M14
MDA-N = tested on: MDA-N
UACC-257 = tested on: UACC-257
T47D = tested on: T47D
EKVX = tested on: EKVX
ACHN = tested on: ACHN
SN12C = tested on: SN12C
A549 = tested on: A549
LOX IMVI = tested on: LOX IMVI
HOP-92 = tested on: HOP-92
IGROV-1 = tested on: IGROV-1
A498 = tested on: A498
CAKI-1 = tested on: CAKI-1

Measured: GI50

COC(=O)C(C)(C)[C@@H]1OC(=O)N(S(=O)(=O)c2c(C)cc(C)cc2C)[C@H]1C(C)C
inactive: SK-MEL-28 > 100 µM | OVCAR-8 > 100 µM | NCI-H522 > 100 µM | MCF7 75.9 µM | NCI-H460 55 µM | UACC-62 > 100 µM | M14 88.1 µM | MDA-N > 100 µM | UACC-257 60.3 µM | T47D 63.5 µM | EKVX > 100 µM | ACHN > 100 µM | SN12C > 100 µM | A549 85.7 µM | LOX IMVI 78 µM | HOP-92 23.1 µM | IGROV-1 > 100 µM

CC(=O)OCC1OC(n2c3c(c(-c4ccc(Cl)cc4)c(C#N)c2=S)CCCC3)C(OC(C)=O)C(OC(C)=O)C1OC(C)=O (stereo not given)
inactive: SK-MEL-28 32.4 µM | OVCAR-8 > 100 µM | NCI-H522 40.7 µM | MCF7 > 100 µM | NCI-H460 42.5 µM | UACC-62 23.3 µM | M14 81.1 µM | MDA-N 42.8 µM | UACC-257 51.9 µM | T47D 36.7 µM | ACHN 43.8 µM | SN12C 88.5 µM | A549 36.1 µM | LOX IMVI 44.9 µM | HOP-92 7.29 µM | IGROV-1 45.9 µM | A498 35.2 µM

CC1=NC(C)(C)N(O)C1(C)C
inactive: SK-MEL-28 > 100 µM | OVCAR-8 > 100 µM | NCI-H522 > 100 µM | MCF7 > 100 µM | NCI-H460 > 100 µM | UACC-62 > 100 µM | M14 > 100 µM | MDA-N > 100 µM | T47D > 100 µM | EKVX > 100 µM | ACHN > 100 µM | SN12C > 100 µM | A549 > 100 µM | LOX IMVI > 100 µM | HOP-92 > 100 µM | IGROV-1 > 100 µM | A498 > 100 µM

CC(C)(C)OC(=O)N[C@H]1CCN(C2CCCCC2)C1=O
inactive: SK-MEL-28 > 100 µM | OVCAR-8 > 100 µM | MCF7 > 100 µM | NCI-H460 > 100 µM | UACC-62 > 100 µM | M14 > 100 µM | MDA-N > 100 µM | EKVX > 100 µM | ACHN > 100 µM | SN12C > 100 µM | A549 > 100 µM | LOX IMVI > 100 µM | HOP-92 > 100 µM | IGROV-1 > 100 µM | A498 > 100 µM

COc1ccc(/C=C2\Sc3nnc(-c4ccccc4)n3N=C2c2cc(F)c(Cl)cc2Cl)cc1OC
inactive: SK-MEL-28 > 100 µM | OVCAR-8 48.9 µM | NCI-H522 12.6 µM | MCF7 19.8 µM | NCI-H460 > 100 µM | CAKI-1 31 µM | M14 29.3 µM | MDA-N 23.1 µM | UACC-257 > 100 µM | T47D 29.6 µM | EKVX > 100 µM | ACHN > 100 µM | LOX IMVI > 100 µM | HOP-92 37 µM | IGROV-1 40.4 µM | A498 > 100 µM

CCCCCCCCOCC1S(=O)(=O)OCCOS1(=O)=O
inactive: SK-MEL-28 > 100 µM | OVCAR-8 > 100 µM | NCI-H522 > 100 µM | NCI-H460 > 100 µM | CAKI-1 > 100 µM | UACC-62 > 100 µM | M14 > 100 µM | MDA-N > 100 µM | UACC-257 > 100 µM | T47D > 100 µM | EKVX > 100 µM | ACHN > 100 µM | SN12C > 100 µM | A549 > 100 µM | LOX IMVI > 100 µM | HOP-92 > 100 µM | IGROV-1 > 100 µM | A498 > 100 µM

Source: ChEMBL document CHEMBL1201862, “PubChem BioAssay data set” (2004)
